Laboratory results as given in US20150181873A1, “HERBICIDE-RESISTANT SUNFLOWER PLANTS, POLYNUCLEOTIDES ENCODING HERBICIDE=RESISTANT ACETO HYDROXY ACID SYNTHASE LARGE SUBUNIT PROTEINS, AND METHODS OF USE” (NIDERA S.A., priority 2013, published 2015).

Experiments:
Assay type in all cases: in vivo, Helianthus annuus
[1] = tested on: Clearfield sunflower variety A; experiment: Greenhouse spray injury rating, Clearfield variety A; conditions: imazapyr 240 gm ai/ha, scale 0-9
From the text: (§1) Sunflower lines S4897, Clearfield® sunflower varieties A, B, C and a conventional non-Clearfield variety were sprayed with three rates of imazamox (Raptor™), 100, 200 and 300 gm ai/ha plus 0.5% Sun It II and two rates of imazapyr (Arsenal™) 160 and 360 gm ai/ha plus 0.5% Sun It II when the plants were at the two to three leaf stage. Ratings were taken at 14 days after application (DAT) for injury. Injury was rated on a scale from 0 to 9 where 0=no injury to 9=dead plant. Twelve plants were sprayed per herbicide/rate treatment. Statistical analysis was conducted with STATGRAPHICS Plus 5.0 by using ANOVA and LSD procedures.
(§2) After plants were sprayed, it was realized that a height difference between S4897 and other sunflower varieties would have impacted the actual herbicide dose that was delivered. The spray boom height had been calibrated against S4897 and since the other varieties were taller and closer to the boom they would have received a greater dose of herbicide. Rates were recalibrated for the other varieties to determine the approximate dose they would have received. Assessments were made as presented in Table 2 since it was not possible to make a direct rate comparison due to the effect of the height. For example injury scores were compare for S4897 treated imazamox rate 100 gm ai/ha to the other varieties treated at 75 gm ai/ha. The treatment dose of 300 gm ai/ha for line S4897 was equivalent to the treatment of 200 gm ai/ha for the other varieties, which […].

[2] = tested on: Clearfield sunflower variety C; experiment: Greenhouse spray injury rating, Clearfield variety C; conditions: imazapyr 240 gm ai/ha, scale 0-9
From the text: as §1, §2

[3] = tested on: sunflower hybrid TH1 (A205V); experiment: Greenhouse imazapir dose response, TH1; conditions: 14 DAT
Description: (§3) A greenhouse study was conducted to quantify and contrast the imazapir sensivity of the mutants A122T and A205V in different genetic backgrounds at the whole plant level in sunflower. Seeds of the different sunflower lines that were used in this study were obtained under field conditions.
(§4) Seeds were sown in Petri dishes and, after germination, plantlets were transplanted to pots of 10 cm of diameter in a potting media consisting of equal parts of vermiculite, soil and sand. Plants were grown in a greenhouse under natural light conditions supplemented with 400 W sodium halide lamps to provide a 16 hrs daylength. Day/night temperatures were 25 and 20° C., respectively. At the V2 stage 10 plants of each genotype were randomly assigned to each treatment consisting of […] imazapir doses (0, 40, 80, 160, 240, 320, 400 and 480 g ai/ha), and a zero-time biomass determination. Experiment was arranged as a randomized block design with a full factorial (sunflower line×treatment) arrangement of treatments and 10 replications.
(§5) On the day of herbicide application ten plants of each genotype were cut at the cotyledonal node and dried at 60° C. for 48 hrs zero-time for dried weight determination. […] Height was determined as the distance between the cotyledonal node and the apex of each plant. For root biomass determination, each plant was taken from the pot and the potting media was washed out from the roots. Above ground biomass data from each line were converted to biomass accumulation after application by subtracting the appropriate average zero-time biomass from each sample. Dry biomass data were converted to percentages of the untreated control plants within each line to allow direct comparisons between groups.

[4] = tested on: sunflower hybrid TH6 (A122T); experiment: Greenhouse imazapir dose response, TH6; conditions: 14 DAT
Description: as §3, §4, §5

[5] = tested on: sunflower hybrid TH11 (A122T); experiment: Greenhouse imazapir dose response, TH11; conditions: 14 DAT
Description: as §3, §4, §5

## CC(C)C1(C)N=C(c2ncccc2C(=O)O)NC1=O (centres unmarked) [Imazapyr, imazapyr]
[1]
  Injury at 14 DAT: 5.0 c
[2]
  Injury at 14 DAT: 4.9 c
[3]; 0.5x (40 g ai/ha)
  Phytotoxicity Index: 0
  biomass accumulation, % of untreated: 95.0%
  plant height, % of untreated: 99.5%
  root dry weight, % of untreated: 79.4%
[3]; 1x (80 g ai/ha)
  Phytotoxicity Index: 0
  biomass accumulation, % of untreated: 89.6%
  plant height, % of untreated: 99.5%
  root dry weight, % of untreated: 70.7%
[3]; 2x (160 g ai/ha)
  Phytotoxicity Index: 1.8
  biomass accumulation, % of untreated: 75.5%
  plant height, % of untreated: 78.6%
  root dry weight, % of untreated: 69.6%
[3]; 3x (240 g ai/ha)
  Phytotoxicity Index: 6.4
  biomass accumulation, % of untreated: 60.4%
  plant height, % of untreated: 48.4%
  root dry weight, % of untreated: 42.3%
[3]; 4x (320 g ai/ha)
  Phytotoxicity Index: 8.0
  biomass accumulation, % of untreated: 46.5%
  plant height, % of untreated: 28.9%
  root dry weight, % of untreated: 38.6%
[3]; 5x (400 g ai/ha)
  Phytotoxicity Index: 8.9
  biomass accumulation, % of untreated: 38.9%
  plant height, % of untreated: 25.3%
  root dry weight, % of untreated: 34.7%
[3]; 6x (480 g ai/ha)
  Phytotoxicity Index: 9.0
  biomass accumulation, % of untreated: 33.9%
  plant height, % of untreated: 27.1%
  root dry weight, % of untreated: 23.1%
[4]; 0.5x (40 g ai/ha)
  Phytotoxicity Index: 0.5
  biomass accumulation, % of untreated: 100%
  plant height, % of untreated: 99.2%
  root dry weight, % of untreated: 100%
[4]; 1x (80 g ai/ha)
  Phytotoxicity Index: 0.5
  biomass accumulation, % of untreated: 97.2%
  plant height, % of untreated: 98.6%
  root dry weight, % of untreated: 98.1%
[4]; 2x (160 g ai/ha)
  Phytotoxicity Index: 0.5
  biomass accumulation, % of untreated: 97.9%
  plant height, % of untreated: 100.3%
  root dry weight, % of untreated: 96.2%
[4]; 3x (240 g ai/ha)
  Phytotoxicity Index: 0.5
  biomass accumulation, % of untreated: 98.2%
  plant height, % of untreated: 99.6%
  root dry weight, % of untreated: 79.3%
[4]; 4x (320 g ai/ha)
  Phytotoxicity Index: 0.5
  biomass accumulation, % of untreated: 97.8%
  plant height, % of untreated: 101.0%
  root dry weight, % of untreated: 78.4%
[4]; 5x (400 g ai/ha)
  Phytotoxicity Index: 0.5
  biomass accumulation, % of untreated: 85.1%
  plant height, % of untreated: 87.0%
  root dry weight, % of untreated: 85.8%
[4]; 6x (480 g ai/ha)
  Phytotoxicity Index: 0.5
  biomass accumulation, % of untreated: 79.5%
  plant height, % of untreated: 79.6%
  root dry weight, % of untreated: 57.3%
[5]; 0.5x (40 g ai/ha)
  Phytotoxicity Index: 0.4
  biomass accumulation, % of untreated: 96.6%
  plant height, % of untreated: 100.4%
  root dry weight, % of untreated: 100%
[5]; 1x (80 g ai/ha)
  Phytotoxicity Index: 0.4
  biomass accumulation, % of untreated: 93.9%
  plant height, % of untreated: 99.9%
  root dry weight, % of untreated: 99.0%
[5]; 2x (160 g ai/ha)
  Phytotoxicity Index: 0.4
  biomass accumulation, % of untreated: 81.6%
  plant height, % of untreated: 92.0%
  root dry weight, % of untreated: 86.1%
[5]; 3x (240 g ai/ha)
  Phytotoxicity Index: 0.5
  biomass accumulation, % of untreated: 75.8%
  plant height, % of untreated: 90.5%
  root dry weight, % of untreated: 81.5%
[5]; 4x (320 g ai/ha)
  Phytotoxicity Index: 1.0
  biomass accumulation, % of untreated: 75.0%
  plant height, % of untreated: 90.8%
  root dry weight, % of untreated: 72.6%
[5]; 5x (400 g ai/ha)
  Phytotoxicity Index: 2.0
  biomass accumulation, % of untreated: 60.1%
  plant height, % of untreated: 84.4%
  root dry weight, % of untreated: 68.9%
[5]; 6x (480 g ai/ha)
  Phytotoxicity Index: 2.5
  biomass accumulation, % of untreated: 59.6%
  plant height, % of untreated: 84.4%
  root dry weight, % of untreated: 45.3%
